Key:
[1] = Stability test: storage at 30° or 37° C. for 12 months, amount of therapeutic agent remaining assayed at 2 and 12 months; type: physicochemical
[2] = cited from earlier work
[3] = Stability in the presence of acid or of polyethylene glycol (general statements, no test described); type: physicochemical

Structure (SMILES): C/C(=C\C(=O)OCCCCCCCCC(=O)O)C[C@@H]1OC[C@H](C[C@@H]2O[C@H]2[C@@H](C)[C@H](C)O)[C@@H](O)[C@H]1O [Pseudomonic acid]
- % remaining after 2 months at 37° C. [1]: Dec
- % remaining after 12 months at 30° C. [1]: Dec
- % remaining after 12 months at 37° C. [1]: Dec
- % remaining after 2 months at 30° C. ([1]; storage, 1460 h): 78%
- stability in the presence of acid [2]: tend to undergo a rearrangement reaction in the presence of acid
- stability in the presence of polyethylene glycol, or a derivative thereof [3]: improved stability

From patent US4524075A, “Pharmaceutical formulations containing pseudomonic acid” (Beecham Group p.l.c., priority 1982, dated 1985)
